In patent publication US20230203043A1, “NOVEL IMIDAZOPYRAZINE DERIVATIVES” (Hoffmann-La Roche Inc., priority 2020, published 2023):

system: Acinetobacter baumannii ATCC17961; test: Antimicrobial susceptibility testing: 90% growth inhibitory concentration (IC90) determination in Iso-Sensitest broth, OD600 growth; type: cell-based; conditions: Acinetobacter baumannii, ATCC17961, 16 h, strain ATCC 17961, OD600 growth over 16 h, read-out: A. baumannii ATCC 17961 IC90
In short: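 Each strain, at about 5×10^(5) CFU/ml, was incubated with twofold dilutions of compound at 35±2° C for 16 h, and IC90 was calculated from kinetic optical density measured at 600 nm during logarithmic growth.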

SMILES | IC90 [nM]
C#CCNC(=O)c1c(C)cc(Nc2nccn3c(-c4cn(CC=C)nc4C(F)(F)F)cnc23)cc1F [Example 41, 2-fluoro-6-methyl-4-[[3-[1-prop-2-enyl-3-(trifluoromethyl)pyrazol-4-yl]imidazo[1,2-a]pyrazin-8-yl]amino]-N-prop-2-ynylbenzamide] | 254
C#CCNC(=O)c1c(C)cc(Nc2nccn3c(-c4cn(CCF)nc4C(F)(F)F)cnc23)cc1F [Example 42, 2-fluoro-4-[[3-[1-(2-fluoroethyl)-3-(trifluoromethyl)pyrazol-4-yl]imidazo[1,2-a]pyrazin-8-yl]amino]-6-methyl-N-prop-2-ynylbenzamide] | 354
C#CCNC(=O)c1c(C)cc(Nc2nccn3c(-c4c[nH]nc4C(F)(F)F)cnc23)cc1F [Example 43, 2-fluoro-6-methyl-N-prop-2-ynyl-4-[[3-[3-(trifluoromethyl)-1H-pyrazol-4-yl]imidazo[1,2-a]pyrazin-8-yl]amino]benzamide] | 1950
C#CCn1cc(-c2cnc3c(Nc4ccc(C(=O)NCCOCC(C)(C)N)c(CC)c4)nccn23)c(C(F)(F)F)n1 [Example 44, N-[2-(2-amino-2-methylpropoxy)ethyl]-2-ethyl-4-[[3-[1-prop-2-ynyl-3-(trifluoromethyl)pyrazol-4-yl]imidazo[1,2-a]pyrazin-8-yl]amino]benzamide] | 59
C#CCn1cc(-c2cnc3c(Nc4ccc(C(=O)N5CCC(CN)CC5)c(CC)c4)nccn23)c(C(F)(F)F)n1 [Example 46, [4-(aminomethyl)piperidin-1-yl]-[2-ethyl-4-[[3-[1-prop-2-ynyl-3-(trifluoromethyl)pyrazol-4-yl]imidazo[1,2-a]pyrazin-8-yl]amino]phenyl] methanone] | 93
Cc1cc(Nc2nccn3c(-c4cn(CC(F)F)nc4C(F)(F)F)cnc23)cc(F)c1C(=O)NCCOCCN [Example 49, N-[2-(2-aminoethoxy)ethyl]-4-[[3-[1-(2,2-difluoroethyl)-3-(trifluoromethyl)pyrazol-4-yl]imidazo[1,2-a]pyrazin-8-yl]amino]-2-fluoro-6-methylbenzamide] | 120
CCc1cc(Nc2nccn3c(-c4cn(CC(F)F)nc4C(F)(F)F)cnc23)ccc1C(=O)NCCOCC(C)(C)N [Example 50, N-[2-(2-amino-2-methylpropoxy)ethyl]-4-[[3-[1-(2,2-difluoroethyl)-3-(trifluoromethyl)pyrazol-4-yl]imidazo[1,2-a]pyrazin-8-yl]amino]-2-ethylbenzamide] | 121
CCc1cc(Nc2nccn3c(-c4cn(CC(F)F)nc4C(F)(F)F)cnc23)ccc1C(=O)NCCCN [Example 52, N-(3-aminopropyl)-4-[[3-[1-(2,2-difluoroethyl)-3-(trifluoromethyl)pyrazol-4-yl]imidazo[1,2-a]pyrazin-8-yl]amino]-2-ethylbenzamide] | 144
C=CCn1cc(-c2cnc3c(Nc4ccc(C(=O)N5CCC(CN)CC5)c(CC)c4)nccn23)c(C(F)(F)F)n1 [Example 53, [4-(aminomethyl)piperidin-1-yl]-[2-ethyl-4-[[3-[1-prop-2-enyl-3-(trifluoromethyl)pyrazol-4-yl]imidazo[1,2-a]pyrazin-8-yl]amino]phenyl] methanone] | 157
CCc1cc(Nc2nccn3c(-c4cn(CCF)nc4C(F)(F)F)cnc23)ccc1C(=O)NCCOCC(C)(C)N [Example 54, N-[2-(2-amino-2-methylpropoxy)ethyl]-2-ethyl-4-[[3-[1-(2-fluoroethyl)-3-(trifluoromethyl)pyrazol-4-yl]imidazo[1,2-a]pyrazin-8-yl]amino]benzamide] | 162
C#CCn1cc(-c2cnc3c(Nc4ccc(C(=O)N[C@@H](C)CN)c(CC)c4)nccn23)c(C(F)(F)F)n1 [Example 55, N-[(2S)-1-aminopropan-2-yl]-2-ethyl-4-[[3-[1-prop-2-ynyl-3-(trifluoromethyl)pyrazol-4-yl]imidazo[1,2-a]pyrazin-8-yl]amino]benzamide] | 167
CCc1cc(Nc2nccn3c(-c4cn(CCF)nc4C(F)(F)F)cnc23)ccc1C(=O)NCCCN [Example 56, N-(3-aminopropyl)-2-ethyl-4-[[3-[1-(2-fluoroethyl)-3-(trifluoromethyl)pyrazol-4-yl]imidazo[1,2-a]pyrazin-8-yl]amino]benzamide] | 194
CCc1cc(Nc2nccn3c(-c4cn(CC(F)F)nc4C(F)(F)F)cnc23)ccc1C(=O)N[C@@H](C)CN [Example 57, N-[(2S)-1-aminopropan-2-yl]-4-[[3-[1-(2,2-difluoroethyl)-3-(trifluoromethyl)pyrazol-4-yl]imidazo[1,2-a]pyrazin-8-yl]amino]-2-ethylbenzamide] | 202
CCc1cc(Nc2nccn3c(-c4cn(CC(F)F)nc4C(F)(F)F)cnc23)ccc1C(=O)N1CCC(CN)CC1 [Example 58, [4-(aminomethyl)piperidin-1-yl]-[4-[[3-[1-(2,2-difluoroethyl)-3-(trifluoromethyl)pyrazol-4-yl]imidazo[1,2-a]pyrazin-8-yl]amino]-2-ethylphenyl] methanone] | 209
CCc1cc(Nc2nccn3c(-c4cn(CC#N)nc4C(F)(F)F)cnc23)ccc1C(=O)NCCOCC(C)(C)N [Example 60, N-[2-(2-amino-2-methylpropoxy)ethyl]-4-[[3-[1-(cyanomethyl)-3-(trifluoromethyl)pyrazol-4-yl]imidazo[1,2-a]pyrazin-8-yl]amino]-2-ethylbenzamide] | 230
Cc1cc(Nc2nccn3c(-c4cn(CCF)nc4C(F)(F)F)cnc23)cc(F)c1C(=O)NCCOCCN [Example 61, N-[2-(2-aminoethoxy)ethyl]-2-fluoro-4-[[3-[1-(2-fluoroethyl)-3-(trifluoromethyl)pyrazol-4-yl]imidazo[1,2-a]pyrazin-8-yl]amino]-6-methylbenzamide] | 232
CCc1cc(Nc2nccn3c(-c4cn(CCF)nc4C(F)(F)F)cnc23)ccc1C(=O)N1CCC(CN)CC1 [Example 62, [4-(aminomethyl)piperidin-1-yl]-[2-ethyl-4-[[3-[1-(2-fluoroethyl)-3-(trifluoromethyl)pyrazol-4-yl]imidazo[1,2-a]pyrazin-8-yl]amino]phenyl] methanone] | 242
C=CCn1cc(-c2cnc3c(Nc4ccc(C(=O)N[C@@H](C)CN)c(CC)c4)nccn23)c(C(F)(F)F)n1 [Example 63, N-[(2S)-1-aminopropan-2-yl]-2-ethyl-4-[[3-[1-prop-2-enyl-3-(trifluoromethyl)pyrazol-4-yl]imidazo[1,2-a]pyrazin-8-yl]amino]benzamide] | 270
C=CCn1cc(-c2cnc3c(Nc4ccc(C(=O)N5CCN(C(=O)C6CCNCC6)CC5)c(CC)c4)nccn23)c(C(F)(F)F)n1 [Example 64, [2-ethyl-4-[[3-[1-prop-2-enyl-3-(trifluoromethyl)pyrazol-4-yl]imidazo[1,2-a]pyrazin-8-yl]amino]phenyl]-[4-(piperidine-4-carbonyl)piperazin-1-yl]methanone] | 306
CCc1cc(Nc2nccn3c(-c4cn(CCF)nc4C(F)(F)F)cnc23)ccc1C(=O)N[C@@H](C)CN [Example 65, N-[(2S)-1-aminopropan-2-yl]-2-ethyl-4-[[3-[1-(2-fluoroethyl)-3-(trifluoromethyl)pyrazol-4-yl]imidazo[1,2-a]pyrazin-8-yl]amino]benzamide] | 339
C#CCn1cc(-c2cnc3c(Nc4cc(C)c(C(=O)N5CCNCC5)c(F)c4)nccn23)c(C(F)(F)F)n1 [Example 67, [2-fluoro-6-methyl-4-[[3-[1-prop-2-ynyl-3-(trifluoromethyl)pyrazol-4-yl]imidazo[1,2-a]pyrazin-8-yl]amino]phenyl]-piperazin-1-ylmethanone] | 413

same assay, conditions: strain ATCC 17961, OD600 growth over 16 h, read-out: A. baumannii ATCC 17961 IC90

SMILES | IC90 [nM]
C#CCNC(=O)c1c(C)cc(Nc2nccn3c(-c4cn(CC#C)nc4C(F)(F)F)cnc23)cc1F [Example 40, 2-fluoro-6-methyl-N-prop-2-ynyl-4-[[3-[1-prop-2-ynyl-3-(trifluoromethyl)pyrazol-4-yl]imidazo[1,2-a]pyrazin-8-yl]amino] benzamide] | 196
C=CCn1cc(-c2cnc3c(Nc4ccc(C(=O)NCCOCC(C)(C)N)c(CC)c4)nccn23)c(C(F)(F)F)n1 [Example 45, N-[2-(2-amino-2-methylpropoxy)ethyl]-2-ethyl-4-[[3-[1-prop-2-enyl-3-(trifluoromethyl)pyrazol-4-yl]imidazo[1,2-a]pyrazin-8-yl]amino] benzamide] | 74
C#CCn1cc(-c2cnc3c(Nc4ccc(C(=O)NCCCN)c(CC)c4)nccn23)c(C(F)(F)F)n1 [Example 47, N-(3-aminopropyl)-2-ethyl-4-[[3-[1-prop-2-ynyl-3-(trifluoromethyl)pyrazol-4-yl]imidazo[1,2-a]pyrazin-8-yl]amino] benzamide] | 105
C=CCn1cc(-c2cnc3c(Nc4ccc(C(=O)NCCCN)c(CC)c4)nccn23)c(C(F)(F)F)n1 [Example 48, N-(3-aminopropyl)-2-ethyl-4-[[3-[1-prop-2-enyl-3-(trifluoromethyl)pyrazol-4-yl]imidazo[1,2-a]pyrazin-8-yl]amino] benzamide] | 117
C=CCn1cc(-c2cnc3c(Nc4cc(C)c(C(=O)NCCOCCN)c(F)c4)nccn23)c(C(F)(F)F)n1 [Example 51, N-[2-(2-aminoethoxy)ethyl]-2-fluoro-6-methyl-4-[[3-[1-prop-2-enyl-3-(trifluoromethyl)pyrazol-4-yl]imidazo[1,2-a]pyrazin-8-yl]amino] benzamide] | 130
C#CCn1cc(-c2cnc3c(Nc4cc(C)c(C(=O)NCCOCCN)c(F)c4)nccn23)c(C(F)(F)F)n1 [Example 59, N-[2-(2-aminoethoxy)ethyl]-2-fluoro-6-methyl-4-[[3-[1-prop-2-ynyl-3-(trifluoromethyl)pyrazol-4-yl]imidazo[1,2-a]pyrazin-8-yl]amino] benzamide] | 216
C#CCNCCCNC(=O)c1c(C)cc(Nc2nccn3c(-c4cn(CC=C)nc4C(F)(F)F)cnc23)cc1F [Example 66, 2-fluoro-6-methyl-4-[[3-[1-prop-2-enyl-3-(trifluoromethyl)pyrazol-4-yl]imidazo[1,2-a]pyrazin-8-yl]amino]-N-[3-(prop-2-ynylamino)propyl] benzamide] | 379
